The values that follow come from PMC8305076, “Comprehensive Evaluation of Biological Effects of Pentathiepins on Various Human Cancer Cell Lines and Insights into Their Mode of Action” (International Journal of Molecular Sciences, 2021).

Assay type in all cases: cell-based, human
Holding throughout (set-up): key: no impact (0); weak impact (+); strong impact (++)
What all share (conditions): summary grade

The test system of assay [1] is HAP-1, HAP-1.KO.GPx1, Siso and A2780 cells. Nature of the assay: cellular morphology after 24 h. From the text:
All new pentathiepins induced apoptosis, although to different extents and in a cell line-dependent manner. […] In the corresponding GPx1-knockout cell line, the effect of doxorubicin was higher (about 50%), whereas only two of the pentathiepins induced apoptosis, namely, 3 and 5. The fractions of early apoptotic cells were 34 and 15%, respectively, and the population of late apoptotic cells 6% for 3. In the ovarian carcinoma cell line A2780 the overall effects were marginal, but all compounds except 6 increased the percentage of early apoptotic cells to 6–14%, with 3 resulting in the highest amount. In the Siso cell line, pentathiepin 3 increased both the number of early and late apoptotic cells to about 20%, which exceeded the effects of doxorubicine (0.5 µM). These findings were further corroborated by the observation of morphological features such as membrane blebbing and cell shrinkage as particular hallmarks of apoptosis (Figure S51).
Figure S51: Representative images of cellular morphology after an incubation for 24 h with the respective pentathiepins 1-6 (IC90) or a corresponding volume of DMF as negative control in HAP-1, HAP-1.KO.GPx1, Siso and A2780 cells. Arrows denote membrane blebbing, dashed arrows label cell shrinkage.
(1 picture or pasted object on this page, not shown here)

Assay [2] relates to HAP-1, HAP-1.KO.GPx1, A2780, and Siso. The experiment in a line: apoptosis (summary). As for the experimental part: As reported in our earlier publication, a representative pentathiepin was capable of inducing apoptosis in cancer cell lines. Here, we tested compounds 1–6 for their ability to trigger this particular modality of cell death in a subset of four cell lines: HAP-1, HAP-1.KO.GPx1, A2780, and Siso. A flow cytometric assay was performed, allowing us to discriminate between viable, early, and late apoptotic cells (representative dot plots can be found in Figure S47). FITC-labeled annexin V was used to assess the externalization of phosphatidyl serine as a hallmark of early apoptosis induction. The addition of propidium iodide (PI) enabled the detection of late apoptotic cells as it only permeates porous cell membranes and exerts fluorescence once bound to double-stranded DNA.
The annexin V-FITC/PI assay, which discriminates between viable, early, and late apoptotic cells within a sample population, was performed according to the manufacturer’s instructions (Miltenyi Biotec, Teterow, Germany). Briefly, 125,000 cells were seeded in 2 mL per well of a 6-well plate, allowed to adhere overnight, and subsequently treated with the respective pentathiepin (IC90, see Table S4) diluted in 3 mL of medium. After incubation periods of 6, 24, or 48 h, the cells were harvested, washed with the provided binding buffer, and stained with the annexin V-FITC reagent for 20 min at room temperature (RT) in the dark. After another washing step, the pellet was resuspended, and PI was added immediately before flow cytometric measurement at λEx/Em = 488/525 ± 50 nm for FITC and λEx/Em = 488/655–730 nm for PI with the MACSquant Analyzer 10 (Miltenyi Biotec, Teterow, Germany).

Assay [3] relates to seven cancer cell lines. The experiment in a line: DCFDA flow cytometric ROS assay, acute. As to the method: According to the hypothesized mechanism of action (see Figure 3), pentathiepins can create oxidative stress via generation of reactive sulfur precursors. We have previously reported that a representative pentathiepin can increase the intracellular levels of ROS in two cancer cell lines. This effect was thus further evaluated with the new compounds in seven cell lines (Figure 8). The cells were incubated for 15 min with 25.0 µM pentathiepin and subsequently analyzed by using the intracellular ROS sensor 2′,7′-dichlorodihydrofluorescein diacetate (DCFDA) by flow cytometry.
In order to quantify intracellular ROS, we performed a flow cytometric assay based on the ROS-sensor 2′,7′-dichlorofluorescein diacetate (DCFDA). For acute effects of pentathiepins on intracellular ROS levels, the cells were stained with DCFDA first and subsequently incubated with 25 µM of compound for 10 min. […] Per condition, 250,000 cells were seeded in 2 mL of medium per well of a 6-well plate and allowed to adhere overnight. For measurement of acute ROS, the cells were stained with 1 mL of a 20 µM DCFDA-PBS solution for 30 min under standard incubation conditions. Afterwards, the solution was discarded, and the monolayer washed twice with 1 mL of PBS before 3 mL of medium containing 25 µM of pentathiepin was added for 10 min at 37 °C. After removing the solution and washing again with PBS, the cells were detached by using 0.5 mL of a diluted trypsin/EDTA-PBS solution (25%) and harvested with 1 mL of culture medium by carefully rinsing the wells. The cell suspension was transferred to 1.5 mL tubes, centrifuged for 5 min at 500× g, and washed with 1 mL of PBS. After removing the supernatant, each pellet was resuspended in 0.5 mL of PBS for measurement via the MACSquant Analyzer 10 at λEx/Em = 488/530 nm. Relative ROS levels resulting from treatment with pentathiepin were calculated by relating the fluorescence intensity of treated samples to the negative control. For the experiments covering periods of 24 and 48 h, the cells were incubated with the compounds first and stained with DCFDA afterwards. To assess the influence of additional GSH, we included 3 or 30 µM GSH to the medium containing 25 µM of pentathiepin, and the protocol was followed as described.

On to `CCOc1c2c(c3ccc(C(=O)N(CC)CC)cn13)SSSSS2` [Compound 4, 6-Ethoxy-N,N’-diethyl-[1,2,3,4,5]pentathiepino[6,7-a]indolizine-9-carboxamide], for which the Morphological changes entry in assay [1] is listed as “++”. Further, in assay [2], the Apoptosis result is reported as “+”. Moreover, the ROS induction entry in assay [3] is “++”.

For `CCOc1c2c(c3ccc(C(=O)N4CCN(C(=O)c5ccc(F)cc5)CC4)cn13)SSSSS2` [Compound 5, (6-Ethoxy-[1,2,3,4,5]pentathiepino[6,7-a]indolizin-9-yl)(4-(4-fluorobenzoyl)piperazinyl)methanone], the Morphological changes entry in assay [1] is “++”. Moreover, the Apoptosis result in assay [2] is reported as “++”. Also, in assay [3], the ROS induction result is “++”.

As for `CCOc1c2c(c3cnc4[nH]c(-c5ccc(OC)cc5)cc4n13)SSSSS2` [Compound 1, 11-Ethoxy-2-(4-methoxyphenyl)-3H-[1,2,3,4,5]pentathiepino[6′,7′:3,4]pyrrolo[1,2-a]pyrrolo[2,3-e]pyrazine], the Morphological changes in assay [1] was 0. The Apoptosis result in assay [2] is given as “+”. The molecule further displayed an ROS induction in assay [3] of 0.

As for `CCOc1c2c(c3ccc(C(=O)N4CCOCC4)cn13)SSSSS2` [Compound 3, (6-Ethoxy-[1,2,3,4,5]pentathiepino[6,7-a]indolizin-9-yl)(morpholino)methanone], in assay [1], the Morphological changes result is “++”. Moreover, the Apoptosis result in assay [2] is reported as “++”. Besides, the ROS induction entry in assay [3] is “++”.

Turning to `CCOc1c2c(c3ccc(C(=O)N4CCN(S(=O)(=O)c5ccc(C)cc5)CC4)cn13)SSSSS2` [Compound 6, (6-Ethoxy-[1,2,3,4,5]pentathiepino[6,7-a]indolizin-9-yl)(4-tosylpiperazinyl)methanone], the Morphological changes result in assay [1] is “+”. The Apoptosis entry in assay [2] was “+”. Further, the ROS induction entry in assay [3] is reported as “+”.

`CCOc1c2c(c3ccc(C(=O)N4CCCCC4)cn13)SSSSS2` [Compound 2, (6-Ethoxy-[1,2,3,4,5]pentathiepino[6,7-a]indolizin-9-yl)(piperidinyl)methanone]: the Morphological changes result in assay [1] is reported as “+”. Besides, the Apoptosis entry in assay [2] is “+”. The ROS induction entry in assay [3] is given as “++”.
